Measured values taken from patent publication US4683240A, “Pharmaceutical composition containing an imidazolidinetrione derivative or pharmaceutically acceptable salt thereof” (Nippon Zoki Pharmaceutical Co., Ltd., priority 1985, dated 1987).
Like-named read-outs stand apart in the source and are kept apart here.

What was measured:
[1] = Acute toxicity test (oral); parameters: species or system mouse (ddY-strain); settings: mouse, in vivo, male ddY mice, fasted 20 h, deaths over 7 days
Experimental: The test compounds of the present invention suspended in 0.5% aqueous solution of carboxymethylcellulose (C.M.C.) were orally administered to groups of 4 to 6 ddY-strain male mice (weighing about 19 g) which had fasted for 20 hours. The lethal dose was determined by the number of deaths for 7 days thereafter.

Blood Glucose = experiment: Hypoglycemic effect in glucose-loaded fasted rats (blood glucose); assay type: in vivo, rat (Wistar-strain); settings: 2 h
Experimental: Groups of 7 Wistar-strain male rats (weighing about 200 g) which were fasted for 18 hours were used for measurement of hypoglycemic effect according to the modified method by Dulin et al. [Dulin, W. L. et al., Proc. Soc. Expl. Med., 107, 245 (1961)]. That is, 0.5 ml/100 g of 20% aqueous solution of glucose was subcutaneously administered to the backs of rats to prevent a decrease in blood glucose level because of the fasting. Immediately thereafter the test drug suspended in 0.5% aqueous C.M.C. solution was orally given, and 2 hours later, the animals underwent laparotomy under pentobarbital anesthesia, then blood was drawn from the vena cava. The obtained blood sample was allowed to stand for 30 minutes to complete the coagulation and was centrifuged to obtain the serum. Blood sugar level was measured according to the mutalotase GOD method [Trinder, Ann. Clin. Biochem., 6, 24 […]]. Asterisks indicate significant differences (*: p<0.05, **: p<0.01, ***: p<0.001) from the control.

Serum Phospholipid = experiment: Hypolipidemic effect: serum phospholipid; assay type: in vivo, rat (Wistar-strain); settings: 100 mg/kg oral, 2 h; for Serum Phospholipid Level: control 79 ± 2 (compounds 2-12), 72 ± 2 (compounds 15-29); for inhibition in vivo at 100 mg/kg: Rattus norvegicus, vs control, read-out: Serum Phospholipid Decrease
Experimental: (§1) The test drugs suspended in 0.5% aqueous C.M.C. solution were orally administered to groups of 8 Wistar-strain male rats (weighing about 185 g) which were fasted for 18 to 20 hours. 2 hours later, the serum was obtained in the same manner described in (2). Serum triglyceride was measured according to the GPO-p-chlorophenol colorimetric determination [Richard W. Spayd et al., Clinical Chemistry, 24, 1343 (1978)], serum free fatty acid was measured according to the Acyl CoA Synthetase-Acyl CoA Oxidase method [Shimizu S. et al., Biochem. Biophys. Res. Commun., 91, 108 (1979)], free fatty acid was measured according to the enzymatic method [Charles C. Allain et al., Clin. Chem., 20, No. 4, 470 (1974)] and total cholesterol was measured according to the enzymatic method [Takayama M. et al., Clinica Chimica Acta, 79, 93 (1977)]. Asterisks indicate significant differences (*: p<0.05, **: p<00.01, ***: p<0.001) from the control.

Serum Triglyceride = experiment: Hypolipidemic effect: serum triglyceride; assay type: in vivo, rat (Wistar-strain); settings: 100 mg/kg oral, 2 h; for Serum Triglyceride Level: control 65 ± 5 (compounds 2-12), 57 ± 4 (compounds 15-29); for inhibition in vivo at 100 mg/kg: Rattus norvegicus, vs control, read-out: Serum Triglyceride Decrease
Experimental: as §1

Serum Free Fatty Acid = experiment: Hypolipidemic effect: serum free fatty acid; assay type: in vivo, rat (Wistar-strain); settings: 100 mg/kg oral, 2 h; for Serum Free Fatty Acid Level: control 0.53 ± 0.03 (compounds 2-12), 0.52 ± 0.03 (compounds 15-24); for inhibition in vivo at 100 mg/kg: Rattus norvegicus, vs control, read-out: Serum Free Fatty Acid Decrease
Experimental: as §1

Total Serum Cholesterol = experiment: Hypolipidemic effect: total serum cholesterol; assay type: in vivo, rat (Wistar-strain); settings: 100 mg/kg oral, 2 h
Experimental: as §1

[2] = Rattus norvegicus, Table 2, 100 mg/kg oral, vs control, read-out: Blood Glucose Decrease
[3] = Table 2, 100 mg/kg oral, control 133 ± 6

| Structure (SMILES) | LD50 at 168 h [1] | inhibition in vivo at 12.5 mg/kg (Blood Glucose; Rattus norvegicus, Table 2, 12.5 mg/kg oral, vs control, read-out: Blood Glucose Decrease) | inhibition in vivo at 25 mg/kg (Blood Glucose; Rattus norvegicus, Table 2, 25 mg/kg oral, vs control, read-out: Blood Glucose Decrease) | inhibition in vivo at 50 mg/kg (Blood Glucose; Rattus norvegicus, Table 2, 50 mg/kg oral, vs control, read-out: Blood Glucose Decrease) | inhibition in vivo at 100 mg/kg (Blood Glucose; [2]) | Blood Glucose Level (Blood Glucose; Table 2, 12.5 mg/kg oral, control 133 ± 6) | Blood Glucose Level (Blood Glucose; Table 2, 25 mg/kg oral, control 133 ± 6) | Blood Glucose Level (Blood Glucose; Table 2, 50 mg/kg oral, control 133 ± 6) | Blood Glucose Level (Blood Glucose; [3]) | Serum Phospholipid Level (Serum Phospholipid) | inhibition in vivo at 100 mg/kg (Serum Phospholipid) | Serum Triglyceride Level (Serum Triglyceride) | inhibition in vivo at 100 mg/kg (Serum Triglyceride) | Serum Free Fatty Acid Level (Serum Free Fatty Acid) | inhibition in vivo at 100 mg/kg (Serum Free Fatty Acid) | inhibition in vivo at 100 mg/kg (Blood Glucose; Rattus norvegicus, Table 3, 100 mg/kg oral, vs control, read-out: Blood Glucose Decrease) | Blood Glucose Level (Blood Glucose; Table 3, 100 mg/kg oral, control 133 ± 4) | Total Serum Cholesterol Level (Total Serum Cholesterol; control 44 ± 2 (compounds 4-12), 41 ± 1 (compounds 15-29)) | inhibition in vivo at 100 mg/kg (Total Serum Cholesterol; Rattus norvegicus, vs control, read-out: Total Serum Cholesterol Decrease) |
| --- | --- | --- | --- | --- | --- | --- | --- | --- | --- | --- | --- | --- | --- | --- | --- | --- | --- | --- | --- |
| CN1C(=O)NC(=O)C1=O [compound 2, 1-methylimidazolidinetrione] | ~900 mg/kg | 18% | 25.6% | 31.6% | 25.6% | 109 ± 5 mg/dL | 99 ± 2 mg/dL | 91 ± 4 mg/dL | 99 ± 5 mg/dL | 59 ± 1 mg/dL | 25.3% | 22 ± 1 mg/dL | 66.2% | 0.25 ± 0.03 mEq/l | 52.8% |  |  |  |  |
| CCN1C(=O)NC(=O)C1=O [compound 3, 1-ethylimidazolidinetrione] | ~700 mg/kg |  |  |  | 24.8% |  |  |  | 100 ± 2 mg/dL |  |  |  |  |  |  |  |  |  |  |
| O=C1NC(=O)N(Cc2ccccc2)C1=O [compound 15, 1-benzylimidazolidinetrione] | ~1000 mg/kg |  |  |  |  |  |  |  |  | 52 ± 1 mg/dL | 27.8% | 30 ± 1 mg/dL | 47.4% | 0.44 ± 0.02 mEq/l | 15.4% | 15.8% | 112 ± 3 mg/dL | 33 ± 1 mg/dL | 19.5% |
